Measured values taken from patent publication US3984415A, “1-Nitrophenylpyrido [2,3-d] pyrimidine-2,4(1H,3H)-diones” (Hisamitsu Pharmaceutical Co., Inc., priority 1973, dated 1976).
Like-named read-outs stand apart in the source and are kept apart here.

Experiments:
dd-strain male mice = details: 72 hours
Procedure: The lethal dose was estimated from the death of animals 72 hours after administration.

[1] = Analgetic effect (acetic acid writhing syndrome); type: in vivo, dd-strain male mice; details: orally, mice; for ED50: Mus musculus, po, acetic acid writhing
Procedure: Each test compound suspended in 0.5 % tragacanth-saline solution was orally administered to dd-strain male mice (18-20 g). After one hour 0.6% acetic acid solution was intraperitoneally injected in a volume of 0.1 ml/10 g.

[2] = Anti-inflammatory effect (carrageenin edema of hind paw); type: in vivo, Wistar-strain male rats; parameters: anti-inflammatory effect (inhibition percentage of carrageenin edema): scale not given here; details: for inhibition in vivo at 10 mg/kg / inhibition in vivo at 20 mg/kg / inhibition in vivo at 50 mg/kg / inhibition in vivo at 100 mg/kg: Rattus norvegicus, po, read-out: anti-inflammatory effect (inhibition percentage of carrageenin edema)
Procedure: 2. Anti-inflammatory effect
A group of five Wistar-strain male rats (100-150 g) were orally administered with each test compound suspended in 0.5 % tragacanth-saline solution. After 30 minutes 0.5 %-1.0 % carrageenin suspended in the water for injection was injected subcutaneously to a hind paw. After 3 hours the carrageenin edema was measured by volume and the inhibition percentage was determined with respect to the results for the control animals. The inhibition percentages were shown with the notations as follows: […]

[3] = dose 10 mg/kg, orally, rats, 3 hours
[4] = dose 50 mg/kg, orally, rats, 3 hours

Structure (SMILES) | acute toxicity (lethal dose) (dd-strain male mice; i.p.) [mg/kg] | acute toxicity (lethal dose) (dd-strain male mice; p.o.) [mg/kg] | ED50 [1] [mg/kg] | inhibition in vivo at 10 mg/kg [2, 3] [%] | inhibition in vivo at 20 mg/kg ([2]; orally, rats, 3 hours) [%] | inhibition in vivo at 50 mg/kg [2, 4] [%] | inhibition in vivo at 100 mg/kg ([2]; orally, rats, 3 hours) [%] | analgetic effect ED50, 95% C.L. ([1]; only the 95% confidential limits are printed) [mg/kg] | anti-inflammatory effect (inhibition percentage of carrageenin edema) [2, 4] | inhibition in vivo at 10 mg/kg ([2]; 3 h) [%] | inhibition in vivo at 50 mg/kg ([2]; 3 h) [%]
CCn1c(=O)c2cccnc2n(-c2cccc(C(F)(F)F)c2)c1=O [--C2 H5, reference compound] | 600 | 665 | 10 | 46 to 60 | 46 to 60 | > 61 | > 61 |  |  |  | 
CCCn1c(=O)c2cccnc2n(-c2cccc(Br)c2)c1=O [--CH2 CH2 CH3, reference compound] | > 1000 |  | 20 | 46 to 60 | 31 to 45 | 46 to 60 | > 61 |  |  |  | 
Cn1c(=O)c2cccnc2n(-c2cccc(Cl)c2)c1=O [--CH3, reference compound] | > 1000 | > 1000 | 7.1 | 31 to 45 | 46 to 60 | 46 to 60 | 46 to 60 |  |  |  | 
Cn1c(=O)c2cccnc2n(-c2cccc([N+](=O)[O-])c2)c1=O [Compound 2, 1-(m-nitrophenyl)-3-methylpyrido[2,3-d]pyrimidine-2,4(1H,3H)-dione] |  |  | 0.175 | 46 to 60 | 46 to 60 | > 61 | > 61 |  |  |  | 
CCn1c(=O)c2cccnc2n(-c2cccc([N+](=O)[O-])c2)c1=O [Compound 3, 1-(m-nitrophenyl)-3-ethylpyrido[2,3-d]pyrimidine-2,4(1H,3H)-dione] |  |  | 0.113 | > 61 | > 61 | > 61 |  |  |  |  | 
CCCn1c(=O)c2cccnc2n(-c2cccc([N+](=O)[O-])c2)c1=O [Compound 4] | 1000 | > 2000 | 2.6 | 46 to 60 | 46 to 60 | 31 to 45 | 46 to 60 |  |  |  | 
CC(C)n1c(=O)c2cccnc2n(-c2cccc([N+](=O)[O-])c2)c1=O [Compound 5] | > 1000 |  | 2.15 | 46 to 60 | 46 to 60 | 46 to 60 | > 61 |  |  |  | 
CC(C)Cn1c(=O)c2cccnc2n(-c2cccc([N+](=O)[O-])c2)c1=O [Compound 7] | 1000 | > 2000 | 3.1 |  | 31 to 45 | 31 to 45 | 31 to 45 |  |  |  | 
C=CCn1c(=O)c2cccnc2n(-c2cccc([N+](=O)[O-])c2)c1=O [Compound 9, 1-(m-nitrophenyl)-3-allylpyrido[2,3-d]pyrimidine-2,4(1H,3H)-dione] |  | > 2000 | 2.6 | > 61 | 46 to 60 | > 61 | > 61 |  |  |  | 
CC(C)=CCn1c(=O)c2cccnc2n(-c2cccc([N+](=O)[O-])c2)c1=O [Compound 10] |  | > 2000 | 0.43 | 31 to 45 | 31 to 45 | > 61 | 46 to 60 |  |  |  | 
C#CCn1c(=O)c2cccnc2n(-c2cccc([N+](=O)[O-])c2)c1=O [Compound 12] | > 1000 | > 2000 | 1.15 | 46 to 60 | 46 to 60 | 46 to 60 | > 61 |  |  |  | 
O=c1c2cccnc2n(-c2cccc([N+](=O)[O-])c2)c(=O)n1CCCl [Compound 14] | > 1000 | > 2000 | 0.19 | 46 to 60 | > 61 | 46 to 60 | > 61 |  |  |  | 
O=c1c2cccnc2n(-c2cccc([N+](=O)[O-])c2)c(=O)n1CCF [Compound 15] |  | 2000 | ~0.01 | > 61 | 46 to 60 | > 61 | 46 to 60 |  |  |  | 
O=c1c2cccnc2n(-c2cccc([N+](=O)[O-])c2)c(=O)n1CC(F)(F)F [Compound 16, 1-(m-nitrophenyl)-3-(2,2,2-trifluoroethyl)pyrido[2,3-d]pyrimidine-2,4(1H,3H)-dione] | > 1000 | > 2000 | 1.28 | 46 to 60 | > 61 | 46 to 60 | 46 to 60 |  |  |  | 
O=c1c2cccnc2n(-c2cccc([N+](=O)[O-])c2)c(=O)n1CCO [Compound 18, 1-(m-nitrophenyl)-3-(2-hydroxyethyl)pyrido[2,3-d] pyrimidine-2,4(1H,3H)-dione] | > 1000 | > 2000 | 0.42 |  |  | 31 to 45 | 31 to 45 |  |  |  | 
O=c1c2cccnc2n(-c2cccc([N+](=O)[O-])c2)c(=O)n1CCCO [Compound 19] | > 1000 | > 2000 | ~1 | 31 to 45 | 46 to 60 | 46 to 60 | > 61 |  |  |  | 
CC(=O)OCCn1c(=O)c2cccnc2n(-c2cccc([N+](=O)[O-])c2)c1=O [Compound 21] | > 1000 | 2000 | 0.16 |  |  | 16 to 30 | 31 to 45 |  |  |  | 
CCOCCn1c(=O)c2cccnc2n(-c2cccc([N+](=O)[O-])c2)c1=O [Compound 23] | > 1000 |  | 0.168 | 31 to 45 | 46 to 60 | 46 to 60 | 31 to 45 |  |  |  | 
O=C(O)Cn1c(=O)c2cccnc2n(-c2cccc([N+](=O)[O-])c2)c1=O [Compound 26] | > 1000 | > 2000 | 33 |  | 16 to 30 | 31 to 45 |  |  |  |  | 
CCOC(=O)Cn1c(=O)c2cccnc2n(-c2cccc([N+](=O)[O-])c2)c1=O [Compound 27] | 1000 | > 2000 | 45 | 31 to 45 | 31 to 45 | 46 to 60 | 46 to 60 |  |  |  | 
O=c1c2cccnc2n(-c2cccc([N+](=O)[O-])c2)c(=O)n1CCc1ccccc1 [Compound 31] | > 1000 | > 2000 | > 100 |  |  |  | < 15 |  |  |  | 
Cn1c(=O)c2cccnc2n(-c2cccc([N+](=O)[O-])c2)c1=S [Compound 33, 1-(m-nitrophenyl)-3-methyl-2-thio-4-oxo-1,2,3,4-tetrahydropyrido[2,3-d]pyrimidine] | > 1000 | > 2000 |  | 46 to 60 |  |  |  | 0.23 to 1.55 | + ++ |  | 
CCn1c(=O)c2cccnc2n(-c2cccc([N+](=O)[O-])c2)c1=S [Compound 34] | > 1000 | > 2000 | ~0.2 | 46 to 60 |  | 46 to 60 |  |  |  |  | 
CCCn1c(=O)c2cccnc2n(-c2cccc([N+](=O)[O-])c2)c1=S [Compound 35] | > 1000 | > 2000 | ~1000 | 16 to 30 |  | 16 to 30 |  |  |  |  | 
O=c1c2cccnc2n(-c2cccc([N+](=O)[O-])c2)c(=O)n1CC1CC1 [O --CH2] |  |  | 0.12 | > 61 | > 61 | > 61 | > 61 |  |  |  | 
O=c1c2cccnc2n(-c2cccc([N+](=O)[O-])c2)c(=O)n1Cc1ccccc1 [O --Ch2] |  |  | 1.7 | 31 to 45 | 46 to 60 | 46 to 60 | > 61 |  |  |  | 
CN1C(=O)CN=C(c2ccccc2)c2cc(Cl)ccc21 [diazepam, reference compound] |  |  |  |  |  |  |  |  |  | < 15 | 16 to 30
CCCCC1C(=O)N(c2ccccc2)N(c2ccccc2)C1=O [phenylbutazone, reference compound] |  |  | 290 | < 15 |  | 31 to 45 |  |  |  |  | 
